Reference: the supplement of paper PMC11061612

Experiments:
[1] = system: BxPC-3 (Pancreatic Carcinoma); assay: Bliss excess, mean over the matrix (fraction); higher = more synergy
Outline: (§1)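 Bliss excess equals the observed combination effect minus the expected value EA + EB − EA·EB, where EA and EB are the effects of each agent alone. Combination Emax is the second-highest inhibition within the matrix. Inhibition was scaled from CellTiter-Glo 2.0 luminescence, with 0 set by vehicle wells and 1 by blank wells, after 72 hours of two-drug dosing of cells plated in 1536-well plates.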

ES6 (Ewing's Sarcoma) [2] = assay: as above
Outline: as §1

KALS-1 (Glioblastoma) = assay: as above
Outline: as §1

NCI-H226 (Mesothelioma) [3] = assay: as above
Outline: as §1

[4] = system: RCC-JW (Kidney Carcinoma); assay: as above
Outline: as §1

SK-N-SH (Neuroblastoma) = assay: as above
Outline: as §1

[5] = system: C-33-A (Cervical Carcinoma); assay: combination Emax (second highest fraction inhibited in the dose matrix, 72 h); higher = more inhibition; extreme values may be limits of the assay
Outline: as §1

[6] = system: CPC-N (Small Cell Lung Carcinoma); assay: as above
Outline: as §1

ES6 (Ewing's Sarcoma) [7] = assay: as above
Outline: as §1

GAK (Melanoma) = assay: as above
Outline: as §1

[8] = system: HPAF-II (Pancreatic Carcinoma); assay: as above
Outline: as §1

[9] = system: IA-LM (Non-Small Cell Lung Carcinoma); assay: as above
Outline: as §1

IST-MEL1 (Melanoma) = assay: as above
Outline: as §1

[10] = system: LCLC-103H (Non-Small Cell Lung Carcinoma); assay: as above
Outline: as §1

[11] = system: MONO-MAC-6 (Acute Myeloid Leukemia); assay: as above
Outline: as §1

NCI-H226 (Mesothelioma) [12] = assay: as above
Outline: as §1

[13] = system: NCI-H3118 (Head and Neck Carcinoma); assay: as above
Outline: as §1

[14] = system: RCC-JW (Kidney Carcinoma); assay: as above
Outline: as §1

[15] = system: SK-CO-1 (Colorectal Carcinoma); assay: as above
Outline: as §1

[16] = system: ZR-75-30 (Breast Carcinoma); assay: as above
Outline: as §1

| SMILES | Bliss excess [1] | Bliss excess (ES6 (Ewing's Sarcoma) [2]) | Bliss excess (KALS-1 (Glioblastoma)) | Bliss excess (NCI-H226 (Mesothelioma) [3]) | Bliss excess [4] | Bliss excess (SK-N-SH (Neuroblastoma)) | combination Emax [5] | combination Emax [6] | combination Emax (ES6 (Ewing's Sarcoma) [7]) | combination Emax (GAK (Melanoma)) | combination Emax [8] | combination Emax [9] | combination Emax (IST-MEL1 (Melanoma)) | combination Emax [10] | combination Emax [11] | combination Emax (NCI-H226 (Mesothelioma) [12]) | combination Emax [13] | combination Emax [14] | combination Emax [15] | combination Emax [16] |
| --- | --- | --- | --- | --- | --- | --- | --- | --- | --- | --- | --- | --- | --- | --- | --- | --- | --- | --- | --- | --- |
| O=C(c1cc(Cc2n[nH]c(=O)c3ccccc23)ccc1F)N1CCN(C(=O)C2CC2)CC1 [Olaparib] + COc1nnc2ccc(N3CCC(c4ccc(OCCN5CCN(C)C(=O)[C@H]5C)cc4)CC3)nn12 [AZD5153] (first compound max 10 µM, 7x7, partner max 1 µM) | -0.106 | -0.0941 | -0.0141 | -0.0749 | -0.143 | -0.0402 | 0.484 | 0.369 | 0.292 | 0.451 | 0.334 | 0.352 | 0.252 | 0.343 | 0.882 | 0.376 | 0.519 | 0.38 | 0.7 | 0.207 |
| CC1(C)CCC(CN2CCN(c3ccc(C(=O)NS(=O)(=O)c4ccc(NCC5CCOCC5)c([N+](=O)[O-])c4)c(Oc4cnc5[nH]ccc5c4)c3)CC2)=C(c2ccc(Cl)cc2)C1 [Venetoclax] + CS(=O)(=O)CCNCc1ccc(-c2ccc3ncnc(Nc4ccc(OCc5cccc(F)c5)c(Cl)c4)c3c2)o1 [Lapatinib] (first compound max 1 µM, 7x7, partner max 10 µM) | -0.0299 | -0.0675 | -0.0431 | -0.0355 | -0.0229 | 0.008 | 0.444 | 0.148 | 0.585 | 0.229 | 0.192 | 0.207 | 0.293 | 0.208 | 0.353 | 0.113 | 0.468 | 0.967 | 0.345 | 0.823 |
| Cc1c2c(nn1C)CSCc1cc(n(C)n1)CSc1cc(c3ccccc3c1)OCCCc1c(C(=O)O)n(C)c3c-2c(Cl)ccc13 [AZD5991] + Nc1ccn([C@@H]2O[C@H](CO)[C@@H](O)C2(F)F)c(=O)n1 [Gemcitabine] (first compound max 1 µM, 7x7, partner max 0.3 µM) | 0.0052 | -0.002 | -0.0036 | -0.024 | 0.0274 | -0.0198 | 0.895 | 0.754 | 0.529 | 0.473 | 0.268 | 0.261 | 0.606 | 0.513 | 1 | 0.173 | 0.818 | 0.828 | 0.864 | 0.36 |
| C[C@@H](Oc1cc(-c2cnn(C3CCNCC3)c2)cnc1N)c1c(Cl)ccc(F)c1Cl [Crizotinib] + Cn1cnc2c(F)c(Nc3ccc(Br)cc3Cl)c(C(=O)NOCCO)cc21 [Selumetinib] (first compound max 10 µM, 7x7, partner max 10 µM) | -0.0323 | -0.0552 | -0.005 | -0.0387 | -0.0432 | -0.0546 | 0.421 | 0.62 | 0.59 | 0.851 | 0.687 | 0.245 | 0.454 | 0.412 | 0.991 | 0.393 | 0.627 | 0.665 | 0.989 | 0.0695 |
| N#Cc1cnc(Nc2cc(NC[C@H]3CNCCO3)c(C(F)(F)F)cn2)cn1 [SRA737] + C=CCn1c(=O)c2cnc(Nc3ccc(N4CCN(C)CC4)cc3)nc2n1-c1cccc(C(C)(C)O)n1 [AZD1775] (first compound max 10 µM, partner max 1 µM) | 0.0061 | 0.0022 | 0.0439 | -0.0457 | -0.002 | 0.0281 | 0.97 | – | 0.349 | 0.841 | 0.495 | 0.311 | 0.655 | 0.711 | 1 | 0.226 | 0.876 | 0.456 | 0.631 | 0.266 |
| N#Cc1cnc(Nc2cc(NC[C@H]3CNCCO3)c(C(F)(F)F)cn2)cn1 [SRA737] + O=c1[nH]cc(F)c(=O)[nH]1 [5-Fluorouracil] (first compound max 10 µM, 7x7, partner max 20 µM) | -0.0019 | -0.0508 | 0.0085 | -0.0281 | -0.0355 | -0.0499 | 0.478 | 0.861 | 0.161 | 0.448 | 0.436 | 0.0378 | 0.528 | 0.559 | 1 | 0.145 | 0.575 | 0.21 | 0.654 | 0.169 |
| C[C@@H](Oc1cc(-c2cnn(C3CCNCC3)c2)cnc1N)c1c(Cl)ccc(F)c1Cl [Crizotinib] + CC1=C(C(=CC=C1)Cl)NC(=O)C2=CN=C(S2)NC3=CC(=NC(=N3)C)N4CCN(CC4)CCO [Dasatinib] (first compound max 10 µM, 7x7, partner max 2 µM) | 0.035 | -0.0119 | 0.0652 | -0.0295 | -0.065 | 0.0049 | 0.582 | 0.584 | 0.751 | 0.694 | 0.431 | 0.601 | 0.76 | 0.722 | 0.947 | 0.558 | 0.881 | 0.851 | 0.954 | 0.036 |
| N#Cc1cnc(Nc2cc(NC[C@H]3CNCCO3)c(C(F)(F)F)cn2)cn1 [SRA737] + CCc1c2c(nc3ccc(O)cc13)-c1cc3c(c(=O)n1C2)COC(=O)[C@]3(O)CC [SN-38] (first compound max 10 µM, 7x7, partner max 0.3 µM) | -0.0428 | -0.0423 | 0.0836 | -0.0592 | -0.0857 | -0.0471 | 0.943 | 0.872 | 0.59 | 0.585 | 0.547 | 0.675 | 0.828 | 0.817 | 1 | 0.248 | 0.763 | 0.574 | 0.893 | 0.124 |
| C[C@@H](Nc1cc(F)cc(F)c1)c1cc(C(=O)N(C)C)cc2c(=O)cc(N3CCOCC3)oc12 [AZD8186] + CC(=O)c1c(C)c2cnc(Nc3ccc(N4CCNCC4)cn3)nc2n(C2CCCC2)c1=O [Palbociclib] (first compound max 10 µM, 7x7, partner max 10 µM) | -0.0127 | -0.0155 | 0.0114 | -0.0662 | 0.0622 | 0.0108 | 0.353 | 0.262 | 0.412 | 0.448 | 0.466 | 0.311 | 0.545 | 0.476 | 0.654 | 0.297 | 0.568 | 0.588 | 0.749 | 0.336 |
| O=C(c1cc(Cc2n[nH]c(=O)c3ccccc23)ccc1F)N1CCN(C(=O)C2CC2)CC1 [Olaparib] + Cc1c2c(nn1C)CSCc1cc(n(C)n1)CSc1cc(c3ccccc3c1)OCCCc1c(C(=O)O)n(C)c3c-2c(Cl)ccc13 [AZD5991] (first compound max 10 µM, 7x7, partner max 1 µM) | -0.066 | -0.0431 | -0.0158 | -0.0583 | -0.0125 | -0.0445 | 0.329 | 0.215 | 0.168 | 0.0885 | 0.0669 | 0.0022 | 0.101 | 0.192 | 0.993 | 0.107 | 0.352 | 0.163 | 0.785 | 0.197 |
| C[C@@H]1COCCN1c1cc(C2([S@](C)(=N)=O)CC2)nc(-c2ccnc3[nH]ccc23)n1 [AZD6738] + Nc1ccn([C@@H]2O[C@H](CO)[C@@H](O)C2(F)F)c(=O)n1 [Gemcitabine] (first compound max 10 µM, 7x7, partner max 0.3 µM) | 0.008 | -0.0072 | 0.0483 | 0.041 | 0.0928 | 0.0248 | 0.969 | 0.949 | 0.731 | 0.503 | 0.577 | 0.462 | 0.768 | 0.794 | 1 | 0.495 | 0.846 | 0.877 | 0.897 | 0.269 |
| C[C@@H]1COCCN1c1cc(C2([S@](C)(=N)=O)CC2)nc(-c2ccnc3[nH]ccc23)n1 [AZD6738] + C1CC(C1)(C(=O)[O-])C(=O)[O-].N.N.[Pt+2] [Carboplatin] (first compound max 10 µM, 7x7, partner max 10 µM) | -0.0539 | -0.0116 | -0.0426 | -0.0383 | 0.0051 | -0.028 | – | 0.8 | – | 0.491 | 0.36 | 0.171 | 0.679 | 0.385 | 0.858 | 0.236 | 0.61 | 0.51 | 0.808 | 0.262 |
| CN(CCO)CC[C@H](CSc1ccccc1)Nc1ccc(S(=O)(=O)NC(=O)c2ccc(N3CCC([C@@H](O)c4ccccc4-c4ccc(Cl)cc4)CC3)cc2)cc1S(=O)(=O)C(F)(F)F [AZD4320] + Nc1ccn([C@@H]2O[C@H](CO)[C@@H](O)C2(F)F)c(=O)n1 [Gemcitabine] (first compound max 1 µM, 7x7, partner max 0.3 µM) | -0.0248 | 0.0253 | 0.0063 | -0.0209 | -0.0025 | 0.0106 | 0.796 | 0.962 | 0.824 | 0.583 | 0.759 | 0.594 | – | 0.681 | 1 | 0.555 | 0.752 | 0.965 | 0.945 | 0.216 |
